In article PMC12666239 (Chembiochem, 2025):
Several values for one entry are separate records, joined by “and”; a condition that tells them apart may be missing. Identical values can stand only once.

Molecular target: Nsp3b^F360N/D361S (Severe acute respiratory syndrome coronavirus 2, UniProt P0DTD1, D1179S/F1178N)
Format: binding, SARS-CoV-2

## N#C[C@@]1(c2ccc3c(N)ncnn23)O[C@H](COS(N)(=O)=O)[C@@H](O)[C@H]1O [compound 3]
  TΔS: ≈ 0.10 kcal mol^−1
  ΔG: −7.73 kcal mol^–1
  ΔH: −7.83 ± 0.15 and −7.83 ± 0.15 kcal mol^–1
  −TΔS: 0.104 kcal mol^–1
